According to patent US9066866B2, “Direct cellular energy delivery system” (University of Louisville Research Foundation, Inc., priority 2002, dated 2015):

Legend:
HUVEC = experiment: Vesicle absorption and release of 3H-ATP into HUVEC; assay type: cell-based, human
Protocol: To determine if ATP is also introduced into cells like carboxyfluorescein, vesicle absorption and release of ATP into HUVEC was followed using the ^3H-ATP-containing vesicles of Example 2. The vesicles were incubated with HUVEC for 5, 10, 15, 30, 45, 60, 90, 120, or 240 minutes. The result shown in FIG. 1 is the partition coefficient of ATP inside the cells after 1 hour. […] When the cells were washed repeatedly there was a significant change in the radioactivity of the cells.

amputated hind legs = experiment: Limb replantation after perfusion of amputated hind legs; assay type: in vivo, rats; details: rat
Protocol: Hind legs were amputated from rats, and the major feed arteries for the severed limbs were cannulated for infusion of ATP-SUV, (1 mM ATP) solution. The limbs were perfused with ATP-SUV or control solutions (see Table 1) every 3 hours, or as deemed necessary by the change in tissue ATP levels. The arterial pressure of the limbs was monitored during infusion to decrease the chance of flow-induced injury, and to monitor the overall preservation of the severed limbs (higher perfusion pressures may indicate limb morbidity). Following the preservation period, the limbs were flushed with Ringers to remove traces of ATP-SUV. The limbs were then surgically reattached, and external indices of limb function after anastomoses were evaluated (limb color, evidence of microthrombi, coagulation, limb temperature). The animals prior to and following replantation received heparin to prevent hemostasis. In addition, animals were placed on antibiotic therapy to reduce infection. Control limbs were perfused with vehicle only, vehicle and ATP only, or vehicle and SUVs only.

`Nc1ncnc2c1ncn2[C@@H]1O[C@H](COP(=O)(O)OP(=O)(O)OP(=O)(O)O)[C@@H](O)[C@H]1O` [^3H-ATP only, adenosine-5′-triphosphate (ATP)] was tested, and the “change in radioactivity of the cells after repeated washes” value (HUVEC; 3H-ATP) was “complete loss of radioactivity”, the “partition coefficient of ATP inside the cells (percent incorporation, rank order)” value (HUVEC; after 1 hour, FIG. 1) was “then ^3H-ATP only, without vesicles” and the “mode of cell entry concluded” value (HUVEC; from wash and fusion data) was “does not enter cells”. For the same compound, the Limb outcome (amputated hind legs) was “necrosis”.
